Laboratory results as given in PubChem BioAssay (NCI).
Where “and” joins values, the source holds several entries; their conditions need not be identical. Equal values may be shown once.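 A five-concentration, 48-hour dose response in 96-well plates underlies each endpoint, interpolated linearly between surrounding concentrations. GI50 = concentration required for 50% inhibition of growth. Definition used: TGI = concentration required for complete inhibition of growth.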

Legend:
Test in all cases: inhibition of tumour cell growth, NCI panel, 48 h
[1] = test system: A498 renal
[2] = test system: EKVX NSCLC
[3] = test system: HCC-2998 colon
[4] = test system: PC-3 prostate
[5] = test system: SF-539 CNS
[6] = test system: SK-MEL-2 melanoma
[7] = test system: SNB-75 CNS
[8] = test system: SW-620 colon
[9] = test system: UACC-62 melanoma
[10] = test system: OVCAR-8 ovarian

Compound	TGI [1]	TGI [2]	TGI [3] [µM]	TGI [4] [µM]	TGI [5]	TGI [6] [µM]	TGI [7]	TGI [8] [µM]	TGI [9]	TGI [10]	GI50 [1] [µM]	GI50 [4] [µM]	GI50 [8] [µM]	GI50 [9] [µM]
CCCN1C(=O)CN(S(=O)(=O)c2ccc(Cl)cc2)C1=O	> 100 µM	> 100 µM	> 100	> 100	> 100 µM	> 100	> 100 µM	> 100	> 100 µM					
O[C@@H]1[C@H](OC2c3ccccc3-c3ccccc32)[C@H](OCc2ccccc2)[C@@H]2OC[C@H]1O2	> 100 µM	> 100 µM	> 100	> 100	81.7 µM	> 100		> 100	> 100 µM	> 100 µM				
CC1(C)CC(=O)C(C(=O)Nc2cccs2)=C(O)C1	88.9 µM	> 100 µM	> 100		> 100 µM	> 100	59.3 µM	> 100	> 100 µM	> 100 µM				
Cc1ccc2c(c1C)CC1(Cc3ccc(C)c(C)c3C1=O)C2=O (centres undefined)		> 100 µM	> 100	> 100	> 100 µM	> 100	> 100 µM	> 100	> 100 µM	> 100 µM				
COc1ccc(/C=C2\C[C@H]3[C@@H]4CC=C5C[C@@H](O)CC[C@]5(C)[C@H]4CC[C@]3(C)\C2=N\O)cc1	71.7 µM	8.78 µM		> 100	> 100 µM	39.8		> 100	50.3 µM					
Cc1ccc2c(=O)cc(-c3cc(C)sc3C)[nH]c2n1	> 100 µM	> 100 µM	36.3	> 30.2	6.25 µM	> 29.6	> 29.9 µM	19.4	> 100 µM	> 37.3 µM				
COC(=O)C1=C(OC)C(=P2(c3ccccc3)CC(c3ccccc3)=C2c2ccccc2)C(C(=O)OC)=C1C(=O)OC (centres undefined)		> 100 µM	> 100	> 100	> 95.5 µM	> 100	> 100 µM	> 100	> 100 µM	> 100 µM				
C/C=C(/CCC1NCCc2c1[nH]c1ccccc21)[Si](C)(C)C (centres undefined)	72 µM and 23.5 µM	> 100 µM and 22.3 µM			> 100 µM and 13.1 µM		> 100 µM and 19.9 µM		> 100 µM and 26.5 µM	> 100 µM and 24.4 µM				
CCOc1ccc(NC(=O)C(=O)C(/C(=N/N)C(=O)OC)c2nc3ccc([N+](=O)[O-])cc3[nH]c2=O)cc1 (centres undefined)	> 100 µM	> 100 µM	> 100	> 100	> 100 µM	> 100	> 100 µM	> 100	> 100 µM	> 100 µM				
C=C1CC[C@@H]2[C@](C)(COC(=O)CCC(=O)OC)CCC[C@@]2(C)[C@@H]1CCC1=CC(=O)OC1	> 100 µM	> 100 µM		> 100	> 100 µM	> 100		> 100		> 100 µM				
CCOC(=O)c1c(Cl)c2c(n1Cc1ccccc1)-c1oncc1CCC2	> 100 µM			> 100				> 100	> 100 µM		4.38	3.17	3.81	4.01
N#CCc1nc(-c2cc3ccccc3oc2=O)cs1		> 100 µM	> 100	> 100	> 100 µM	80.2	99.7 µM	> 100	45.6 µM	> 100 µM				
CC(C)(C)C1CC[C@H]2c3c([nH]c4ccccc34)[C@H]3C(=O)N(c4ccc(F)cc4)C(=O)[C@H]3[C@H]2C1 (some centres undefined)	45.7 µM	36.9 µM	28.4		35.9 µM	33.2	23 µM	35.8	29.6 µM	25.2 µM				
NCCc1ccc(S(=O)(=O)O)cc1[N+](=O)[O-]	> 100 µM	> 100 µM		> 100	> 100 µM	> 100	> 100 µM	> 100	> 100 µM	> 100 µM				
COc1cc(CCN)c(OC)c(OC)c1	> 100 µM	> 100 µM		> 100		> 100	> 100 µM	> 100	> 100 µM	> 100 µM				
C(=C\c1cc[n+](CCc2ccccc2)cc1)/c1ccccc1		> 100 µM		> 100	50.5 µM	55.2	> 100 µM	32.3	22.9 µM	19.5 µM				
N/C(=N\N=C\c1nc2ccccc2o1)c1cnccn1	> 100 µM	> 100 µM		> 100	> 100 µM	> 100	42.8 µM	> 100	> 100 µM	> 100 µM				
COC(=O)[C@@H]1Cc2ccc(OC)c(c2)OCCC(=O)N1		> 100 µM	> 100	> 100		> 100	> 100 µM	> 100	> 100 µM	> 100 µM				
CCOC(=O)c1nc2ccc(C(F)(F)F)cc2nc1Oc1ccc(OC)cc1	> 100 µM	> 100 µM		> 100	> 100 µM	> 100	> 100 µM	> 100	> 100 µM	> 100 µM				
Cc1csc(=Nc2ccccc2)n1CCC(O)(P(=O)(O)O)P(=O)(O)O		> 100 µM	> 100	> 100	> 100 µM		> 100 µM		> 100 µM	> 100 µM				
COc1ccc(OC)c(/C=C2/C(=O)N=C(NC(C)=O)N2C)c1		> 100 µM	> 100	> 100	> 100 µM	> 100	> 100 µM	> 100	> 100 µM	> 100 µM				
CCN(C(=O)N[C@@H](CC(C)C)C(=O)NCC(=O)OC)c1ccccc1		> 100 µM	> 100	> 100	> 100 µM	> 100	> 100 µM	> 100	97.1 µM	> 100 µM				
COC(=O)C1(CCCCl)CCCN1C(=O)OC(C)(C)C (centres undefined)		> 100 µM	> 100	> 100		> 100	> 100 µM	> 100	> 100 µM					
